As a reminder, the IC70 is the point of the concentration-response curve where the effect stands at 70%. A lower IC70 goes with greater potency.

Structures are written as SMILES.

Consider 17 compounds from patent US9115152B2, “Alkylated piperazine compounds” (Genentech, Inc., priority 2011, dated 2015).

The first assay deals with production of CD69 by B lymphocytes in human whole blood. As to the kind of experiment: CD69 Whole Blood Assay (CD69 Hu Blood FACS). Format: cell-based. The note with it: Lymphocyte, stimulated with goat F(ab')2 anti-human IgM, 20 hours, CD69 positive of CD20 positive cells. From the text:
A CD69 Whole Blood Assay can be conducted on Formula I compounds to determine the ability of compounds to inhibit the production of CD69 by B lymphocytes in human whole blood activated by crosslinking surface IgM with goat F(ab′)2 anti-human IgM (Example 907). CD69 is a type II C-type lectin involved in lymphocyte migration and cytokine secretion. CD69 expression represents one of the earliest available indicators of leukocyte activation and its rapid induction occurs through transcriptional activation (Vazquez et al (2009) Jour. of Immunology Published Oct. 19, 2009, doi:10.4049/jimmunol.0900839). Concentration-dependent inhibition of antigen receptor stimulation by selective Btk inhibitors induces cell surface expression of the lymphocyte activation marker CD69 (Honigberg et al (2010) Proc. Natl. Acad. Sci. 107(29):13075-13080). Thus, CD69 inhibition by selective Btk inhibitors may be correlated with therapeutic efficacy of certain B-cell disorders.
Human blood is obtained from healthy volunteers, with the following restrictions: 1 week drug-free, non-smokers. Blood (approximately 20 mls to test 8 compounds) is collected by venipuncture into Vacutainer® (Becton, Dickinson and Co.) tubes with sodium heparin.
Solutions of Formula I compounds at 10 mM in DMSO are diluted 1:10 in 100% DMSO, then are diluted by three-fold serial dilutions in 100% DMSO for a ten point dose-response curve. The compounds are further diluted 1:10 in PBS and then an aliquot of 5.5 μl of each compound is added in duplicate to a 2 ml 96-well plate; 5.5 μl of 10% DMSO in PBS is added as control and no-stimulus wells. Human whole blood—HWB (100 μl) is added to each well. After mixing the plates are incubated at 37° C., 5% CO2, 100% humidity for 30 minutes. Goat F(ab′)2 anti-human IgM (10 μl of a 500 μg/ml solution, 50 μg/ml final) is added to each well (except the no-stimulus wells) with mixing and the plates are incubated for an additional 20 hours. At the end of the 20 hour incubation, samples are incubated with fluorescent labeled antibodies for 30 minutes, at 37° C., 5% CO2, 100% humidity. Include induced control, unstained and single stains for compensation adjustments and initial voltage settings. Samples are then lysed with PharM Lyse™ (BD Biosciences Pharmingen) according to the manufacturer's instructions. Samples are then transferred to a 96 well plate suitable to be run on the BD Biosciences HTS 96 well system on the LSRII machine. Data acquired and Mean Fluorescence Intensity values were obtained using BD Biosciences DIVA Software. Results are initially analyzed by FACS analysis software (Flow Jo).
In the case of `C[C@@H]1CN(c2ccc(Nc3cc(-c4cc(F)cc(N5CCn6c(cc7c6CCCC7)C5=O)c4CO)cn(C)c3=O)nc2)[C@@H](C)CN1C1COC1` [Compound 104, 2-(3-(5-(5-((2S,5R)-2,5-dimethyl-4-(oxetan-3-yl)piperazin-1-yl)pyridin-2-ylamino)-1-methyl-6-oxo-1,6-dihydropyridin-3-yl)-5-fluoro-2-(hydroxymethyl)phenyl)-3,4,6,7,8,9-hexahydropyrazino[1,2-a]indol-1(2H)-one], the 70% effect level (IC70) was put at 15 nM.
`CC[C@H]1CN(C2COC2)CCN1c1ccc(Nc2cc(-c3cc(F)cc(N4CCn5c(cc6c5CCCC6)C4=O)c3CO)cn(C)c2=O)nc1` [Compound 105]: the 70% effect level (IC70) was put at 8 nM.
Same read-out and setting: the value for `C[C@H]1CN(C2COC2)CCN1c1ccc(Nc2cc(-c3cc(F)cc(N4CCn5c(cc6c5CC(C)(C)C6)C4=O)c3CO)cn(C)c2=O)nc1` [Compound 103, (2S)-10-[5-fluoro-2-(hydroxymethyl)-3-[1-methyl-5-({5-[2-methyl-4-(oxetan-3-yl)piperazin-1-yl]pyridine-2-yl}amino)-6-oxo-1,6-dihydropyridin-3-yl]phenyl]-4,4-dimethyl-1,10-diazatricyclo[6.4.0.02,6]dodeca-2(6),7-dien-9-one] was 14.5 nM; that for `C[C@H]1CN(C2COC2)CCN1c1ccc(Nc2cc(-c3cc(F)cc(-n4ncc5c6c(sc5c4=O)CCCC6)c3CO)cn(C)c2=O)nc1` [Compound 102, (S)-5-[5-fluoro-2-(hydroxymethyl)-3(1-methyl-5-(5-(2-methyl-4-(oxetan-3-yl)piperazin-1-yl)pyridin-2-ylamino)-6-oxo-1,6-dihydropyridin-3-yl)phenyl]-8-thia-4,5-diazatricyclo[7.4.0.02,7]trideca-1(9),2(7),3-trien-6-one] was 31 nM.
`C[C@H]1CN(C)CCN1c1ccc(Nc2cc(-c3cc(F)cc(N4CCn5c(cc6c5CCCC6)C4=O)c3CO)cn(C)c2=O)nc1` [Compound 110, (S)-2-(3-(5-(5-(2,4-dimethylpiperazin-1-yl)pyridin-2-ylamino)-1-methyl-6-oxo-1,6-dihydropyridin-3-yl)-5-fluoro-2-(hydroxymethyl)phenyl)-3,4,6,7,8,9-hexahydropyrazino[1,2-a]indol-1(2H)-one] registered an IC70 of 6 nM.
As for `CN1C2COCC1CN(c1ccc(Nc3cc(-c4cc(F)cc(N5CCn6c(cc7c6CCCC7)C5=O)c4CO)cn(C)c3=O)nc1)C2` [Compound 112, 2-(5-fluoro-2-(hydroxymethyl)-3-(1-methyl-5-(5-(9-methyl-7-oxa-3,9-diaza-bicyclo[3.3.1]nonan-3-yl)pyridin-2-ylamino)-6-oxo-1,6-dihydropyridin-3-yl)phenyl)-3,4,6,7,8,9-hexahydropyrazino[1,2-a]indol-1(2H)-one], the 70% effect concentration (IC70) was determined as 170 nM.
`C[C@H]1CN(c2ccc(Nc3cc(-c4cc(F)cc(N5CCn6c(cc7c6CCCC7)C5=O)c4CO)cn(C)c3=O)nc2)CCN1C` [Compound 107, (S)-2-(3-(5-(5-(3,4-dimethylpiperazin-1-yl)pyridin-2-ylamino)-1-methyl-6-oxo-1,6-dihydropyridin-3-yl)-5-fluoro-2-(hydroxymethyl)phenyl)-3,4,6,7,8,9-hexahydropyrazino[1,2-a]indol-1(2H)-one] registered an IC70 of 44 nM.
In the case of `C[C@H]1CN(C2COC2)CCN1c1ccc(Nc2cc(-c3cc(F)cc(N4CCn5c(cc6c5CCCC6)C4=O)c3CO)cn(C)c2=O)nc1` [Compound 106, (S)-2-(5-fluoro-2-(hydroxymethyl)-3-(1-methyl-5-(5-(2-methyl-4-(oxetan-3-yl)piperazin-1-yl)pyridin-2-ylamino)-6-oxo-1,6-dihydropyridin-3-yl)phenyl)-3,4,6,7,8,9-hexahydropyrazino[1,2-a]indol-1(2H)-one], the IC70 turned out to be 19 nM.
In turn, `C[C@H]1CN(C2COC2)CCN1c1ccc(Nc2cc(-c3cc(F)cc(N4CCc5c(cc6n5CCCC6)C4=O)c3CO)cn(C)c2=O)nc1` [Compound 101, (S)-2-(5-fluoro-2-(hydroxymethyl)-3-(1-methyl-5-(5-(2-methyl-4-(oxetan-3-yl)piperazin-1-yl)pyridin-2-ylamino)-6-oxo-1,6-dihydropyridin-3-yl)phenyl)-3,4,6,7,8,9-hexahydropyrido[3,4-b]indolizin-1(2H)-one] returned an IC70 of 33.8 nM.
On the same count and under the same terms, with `C[C@@H]1CN(c2ccc(Nc3cc(-c4cc(F)cc(N5CCn6c(cc7c6CCCC7)C5=O)c4CO)cn(C)c3=O)nc2)CCN1C` [Compound 108, (R)-2-(3-(5-(5-(3,4-dimethylpiperazin-1-yl)pyridin-2-ylamino)-1-methyl-6-oxo-1,6-dihydropyridin-3-yl)-5-fluoro-2-(hydroxymethyl)phenyl)-3,4,6,7,8,9-hexahydropyrazino[1,2-a]indol-1(2H)-one] the figure was 23 nM; with `C[C@@H]1CN(C)CCN1c1ccc(Nc2cc(-c3cc(F)cc(N4CCn5c(cc6c5CCCC6)C4=O)c3CO)cn(C)c2=O)nc1` [Compound 109, (R)-2-(3-(5-(5-(2,4-dimethylpiperazin-1-yl)pyridin-2-ylamino)-1-methyl-6-oxo-1,6-dihydropyridin-3-yl)-5-fluoro-2-(hydroxymethyl)phenyl)-3,4,6,7,8,9-hexahydropyrazino[1,2-a]indol-1(2H)-one], 29 nM.

Staying with this assay, now noted: stimulated with goat F(ab')2 anti-human IgM, 20 hours, CD69 positive of CD20 positive cells, Table 2, unit inferred.
Consider `C[C@H]1CN(C2COC2)CCN1c1ccc(Nc2cc(-c3cccc(-n4ncc5c6c(sc5c4=O)CCCC6)c3CO)cn(C)c2=O)nc1` [Compound 130, 3-[2-(hydroxymethyl)-3-[1-methyl-5-[[5-[(2S)-2-methyl-4-(oxetan-3-yl)piperazin-1-yl]-2-pyridyl]amino]-6-oxo-3-pyridyl]phenyl]-6,7,8,9-tetrahydrobenzothiopheno[2,3-d]pyridazin-4-one], for which the CD69 Hu Blood FACS (IC70) was 35.4 nM.
`C[C@H]1CN(C2COC2)CCN1c1ccc(Nc2cc(-c3cc(F)cc(-n4ncc5c(cc6n5CCCC6)c4=O)c3CO)cn(C)c2=O)nc1` [Compound 127, 2-[5-fluoro-2-(hydroxymethyl)-3-[1-methyl-5-[[5-[(2S)-2-methyl-4-(oxetan-3-yl)piperazin-1-yl]-2-pyridyl]amino]-6-oxo-3-pyridyl]phenyl]-6,7,8,9-tetrahydropyridazino[4,5-b]indolizin-1-one] gave a CD69 Hu Blood FACS (IC70) of 51 nM.
In turn, `C[C@@H]1CN(c2ccc(Nc3cc(-c4cc(F)cc(N5CCc6c(cc7n6CCCC7)C5=O)c4CO)cn(C)c3=O)nc2)[C@@H](C)CN1C1COC1` [Compound 126, 2-[3-[5-[[5-[(2S,5R)-2,5-dimethyl-4-(oxetan-3-yl)piperazin-1-yl]-2-pyridyl]amino]-1-methyl-6-oxo-3-pyridyl]-5-fluoro-2-(hydroxymethyl)phenyl]-3,4,6,7,8,9-hexahydropyrido[3,4-b]indolizin-1-one] gave a CD69 Hu Blood FACS (IC70) of 57.1 nM.
For the compound `C[C@H]1CN(C2COC2)CCN1c1ccc(Nc2cc(-c3cc(F)cc(N4CCn5c(cc6c5CC(C)(C)C6)C4=O)c3C(=O)O)cn(C)c2=O)nc1` [Compound 128, 2-(7,7-dimethyl-4-oxo-1,2,6,8-tetrahydrocyclopenta[3,4]pyrrolo[3,5-b]pyrazin-3-yl)-4-fluoro-6-[1-methyl-5-[[5-[(2S)-2-methyl-4-(oxetan-3-yl)piperazin-1-yl]-2-pyridyl]amino]-6-oxo-3-pyridyl]benzoic acid], the CD69 Hu Blood FACS (IC70) amounted to 5000 nM.
In the case of `C[C@H]1CN(C2COC2)CCN1c1ccc(Nc2cc(-c3cc(F)cc(-n4ncc5c6c(sc5c4=O)CC(C)(C)C6)c3CO)cn(C)c2=O)nc1` [Compound 131, 3-[5-fluoro-2-(hydroxymethyl)-3-[1-methyl-5-[[5-[(2S)-2-methyl-4-(oxetan-3-yl)piperazin-1-yl]-2-pyridyl]amino]-6-oxo-3-pyridyl]phenyl]-7,7-dimethyl-6,8-dihydrocyclopenta[3,4]thieno[1,3-d]pyridazin-4-one], the CD69 Hu Blood FACS (IC70) worked out at 34.9 nM.
`CNC(=O)c1c(-c2cc(Nc3ccc(N4CCN(C5COC5)C[C@@H]4C)cn3)c(=O)n(C)c2)cc(F)cc1N1CCn2c(cc3c2CC(C)(C)C3)C1=O` [Compound 129, 2-(7,7-dimethyl-4-oxo-1,2,6,8-tetrahydrocyclopenta[3,4]pyrrolo[3,5-b]pyrazin-3-yl)-4-fluoro-N-methyl-6-[1-methyl-5-[[5-[(2S)-2-methyl-4-(oxetan-3-yl)piperazin-1-yl]-2-pyridyl]amino]-6-oxo-3-pyridyl]benzamide] gave a CD69 Hu Blood FACS (IC70) of 472 nM.
